Source: ChEMBL document CHEMBL4145615, “Indolyl Azaspiroketal Mannich Bases Are Potent Antimycobacterial Agents with Selective Membrane Permeabilizing Effects and in Vivo Activity” (J Med Chem, 2018)
Converted amounts (≈) assume the structure as drawn.

test system: Mycobacterium tuberculosis variant bovis BCG; assay: Antimycobacterial activity against Mycobacterium bovis BCG ATCC 35734 after 5 days by broth dilution method; format: functional; conditions: ATCC 35734, 120 h

Structure (SMILES)	MIC50 [µM]	MIC90 [µM]
COc1ccc2c(CN3CCC4(CC3)OCCCO4)cn(CCCOc3ccccc3)c2c1	1.3 (≈ 0.586 µg/mL)	3.1 (≈ 1.4 µg/mL)
CCCCCCCCn1cc(CN2CC(n3cccn3)C2)c2ccc(OC)cc21	6 (≈ 2.37 µg/mL)	15 (≈ 5.92 µg/mL)
CCCCCCCCn1cc(CN2CCC3(CC2)OCCCO3)c2ccc([N+](=O)[O-])cc21	0.3 (≈ 0.133 µg/mL)	0.8 (≈ 0.355 µg/mL)
CCCCCCCCn1cc(CN2CCC3(CC2)OCCCO3)c2cccc([N+](=O)[O-])c21	1.3 (≈ 0.577 µg/mL)	3.1 (≈ 1.38 µg/mL)
CCCCCCCCn1cc(CN2CCC3(CC2)OCCCO3)c2ccc(OCc3ccccc3)cc21	2.2 (≈ 1.11 µg/mL)	3.1 (≈ 1.56 µg/mL)
CCCCCCCCn1cc(CN2CCCCC2)c2ccc(C#N)cc21	2 (≈ 0.703 µg/mL)	6 (≈ 2.11 µg/mL)
CCCCCCCCn1cc(CN2CCCC3(CC2)OCCS3)c2ccc(OC)cc21 (centres undefined)	0.7 (≈ 0.311 µg/mL)	1.2 (≈ 0.534 µg/mL)
CCCCCCCCn1cc(CN2CCC3(CCO3)CC2)c2ccc(OC)cc21	2 (≈ 0.797 µg/mL)	4 (≈ 1.59 µg/mL)
COc1ccc2c(CN3CCC4(CC3)OCCCO4)cn(CCCOc3ccc(F)cc3)c2c1	1.5 (≈ 0.703 µg/mL)	2.6 (≈ 1.22 µg/mL)
COc1ccc(OCCCn2cc(CN3CCC4(CC3)OCCCO4)c3ccc(OC)cc32)cc1	1.5 (≈ 0.721 µg/mL)	3.5 (≈ 1.68 µg/mL)
CCCCCCCCn1ccc2ccc(OCCCN3CCCCCC3)cc21	3.9 (≈ 1.5 µg/mL)	12 (≈ 4.62 µg/mL)
CCCCCCCCn1cc(CN2CCCCC2)c2ccc(OC(C)C)cc21	4 (≈ 1.54 µg/mL)	6 (≈ 2.31 µg/mL)
CCCCCCCCn1cc(CN2CCC3(C=Cc4ccccc43)CC2)c2ccc(OC)cc21	1 (≈ 0.457 µg/mL)	2 (≈ 0.913 µg/mL)
CCCCCCCCn1cc(CN2CCC3(CC2)OCCCO3)c2ccc(C#N)cc21	0.5 (≈ 0.212 µg/mL)	1.2 (≈ 0.508 µg/mL)
CCCCCCCCn1cc(CN2CCC3(CC2)OCCO3)c2ccc([N+](=O)[O-])cc21	0.8 (≈ 0.344 µg/mL)	1.6 (≈ 0.687 µg/mL)
CCCCCCCCn1cc(CNCC2CCC3(CCCC3)O2)c2ccc(OC)cc21 (centres undefined)	1.8 (≈ 0.768 µg/mL)	4.6 (≈ 1.96 µg/mL)
CCCCCCCCn1cc(CN2CCC3(CC2)OCCCO3)c2cc([N+](=O)[O-])ccc21	7 (≈ 3.11 µg/mL)	18 (≈ 7.98 µg/mL)
COc1ccc2c(CN3CCCCC3)cn(CCCc3ccccc3)c2c1	36 (≈ 13.1 µg/mL)	> 50
COc1ccc2c(CN3CCC4(CC3)OCCO4)cn(C/C=C/c3ccccc3)c2c1	15 (≈ 6.28 µg/mL)	31 (≈ 13 µg/mL)
COc1ccc2c(CN3CCCCC3)cn(CCCOc3ccc(C)c(C)c3)c2c1	18 (≈ 7.32 µg/mL)	25 (≈ 10.2 µg/mL)
CCCCCCCCn1cc(CN2CC3C(C2)C3(F)F)c2ccc(OC)cc21 (centres undefined)	21 (≈ 8.2 µg/mL)	50 (≈ 19.5 µg/mL)
CCCCCCCCn1cc(CN2CCC3(CC2)OCCCO3)c2c([N+](=O)[O-])cccc21	10 (≈ 4.44 µg/mL)	25 (≈ 11.1 µg/mL)
COc1ccc2c(CN3CCC4(CC3)OCCO4)cn(CCCCc3ccccc3)c2c1	4.9 (≈ 2.13 µg/mL)	11.5 (≈ 5 µg/mL)
CCCCCCCCn1ccc2cc(OCCCN3CCC4(CC3)OCCCO4)ccc21	14 (≈ 6.2 µg/mL)	31 (≈ 13.7 µg/mL)

Structure (SMILES)	MIC50 [µM]	MIC90 [µM]
CCCCCCCCn1ccc2c(OCCCN3CCCCCC3)cccc21	9.5 (≈ 3.65 µg/mL)	22 (≈ 8.46 µg/mL)
CCCCCCCCn1ccc2cc(OCCN3CCCCCC3)ccc21	2 (≈ 0.741 µg/mL)	6 (≈ 2.22 µg/mL)
COc1ccc2c(CN3CCC4(CC3)OCCO4)cn(CCCOc3ccc(C)cc3)c2c1	4.8 (≈ 2.16 µg/mL)	11 (≈ 4.96 µg/mL)
CCCCCCCCn1ccc2cccc(OCCCN3CCCCC3)c21	5 (≈ 1.85 µg/mL)	13 (≈ 4.82 µg/mL)
CCCCCCCCn1cc(CN2CCC3(CC2)OCCO3)c2ccc(OCCC)cc21	3 (≈ 1.33 µg/mL)	5 (≈ 2.21 µg/mL)
CCCCCCCCn1cc(CN2CCC3(CC2)CNC(=O)O3)c2ccc(OC)cc21	22 (≈ 9.41 µg/mL)	43 (≈ 18.4 µg/mL)
CCCCCCCCn1cc(CNC2CCC(=O)CC2)c2ccc(OC)cc21	15 (≈ 5.77 µg/mL)	24 (≈ 9.23 µg/mL)
COc1ccc2c(CN3CCC4(CC3)OCCCO4)cn(CCCOCc3ccccc3)c2c1	2 (≈ 0.929 µg/mL)	6 (≈ 2.79 µg/mL)
CCCCCCCCn1cc(CN2CCCCC2)c2ccc([N+](=O)[O-])cc21	4 (≈ 1.49 µg/mL)	5 (≈ 1.86 µg/mL)
CCCCCCCCn1cc(CN2CCC3(CC2)OCCO3)c2ccc(OC(C)C)cc21	3 (≈ 1.33 µg/mL)	6 (≈ 2.66 µg/mL)
CCCCCCCCn1cc(CN2CCC(S(N)(=O)=O)CC2)c2ccc(OC)cc21	8 (≈ 3.49 µg/mL)	22 (≈ 9.58 µg/mL)
CCCCCCCCn1cc(CN2CCC3(CCc4ccccc43)CC2)c2ccc(OC)cc21	1 (≈ 0.459 µg/mL)	2 (≈ 0.917 µg/mL)
COc1ccc(CCCn2cc(CN3CCC4(CC3)OCCCO4)c3ccc(OC)cc32)cc1	4.1 (≈ 1.9 µg/mL)	9.3 (≈ 4.32 µg/mL)
CCCCCCCCn1cc(CNC2Cc3ccccc3C2)c2ccc(OC)cc21	4 (≈ 1.62 µg/mL)	
CCCCCCCCn1cc(CN2[C@H]3CCC[C@@H]2CCC3)c2ccc(OC)cc21	3.8 (≈ 1.51 µg/mL)	7.6 (≈ 3.01 µg/mL)
CCCCCCCCn1cc(CN2CC(c3ccccc3)C2)c2ccc(OC)cc21	2 (≈ 0.809 µg/mL)	4 (≈ 1.62 µg/mL)
COc1ccc2c(CN3CCC4(CC3)OCCO4)cn(CCCOc3ccc(F)cc3)c2c1	5 (≈ 2.27 µg/mL)	11 (≈ 5 µg/mL)
CCCCCCCCn1ccc2cccc(OCCCN3CCCCCC3)c21	5 (≈ 1.92 µg/mL)	11 (≈ 4.23 µg/mL)
CCCCCCCCn1cc(CN2CCC3(CC2)OC[C@H](C)O3)c2ccc(OC)cc21	0.5 (≈ 0.214 µg/mL)	0.9 (≈ 0.386 µg/mL)
COc1ccc(CCCn2cc(CN3CCCCC3)c3ccc(OC)cc32)cc1	18 (≈ 7.07 µg/mL)	39 (≈ 15.3 µg/mL)
COc1ccc2c(CN3CCCCC3)cn(C/C=C/c3ccccc3)c2c1	31 (≈ 11.2 µg/mL)	49 (≈ 17.7 µg/mL)
COc1ccc(OCCCn2cc(CN3CCC4(CC3)OCCO4)c3ccc(OC)cc32)cc1	6 (≈ 2.8 µg/mL)	13 (≈ 6.07 µg/mL)
COc1ccc2c(CN3CCCCC3)cn(CCCCOc3ccccc3)c2c1	16 (≈ 6.28 µg/mL)	41 (≈ 16.1 µg/mL)
CCCCCCCCn1cc(CN2CCC3(CC2)OCCCO3)c2ccc(OC(C)C)cc21	0.6 (≈ 0.274 µg/mL)	1.6 (≈ 0.731 µg/mL)

Structure (SMILES)	MIC50 [µM]	MIC90 [µM]
CCCCCCCCn1cc(CN2CCC3(C2)CC3(F)F)c2ccc(OC)cc21 (centres undefined)	13 (≈ 5.26 µg/mL)	18 (≈ 7.28 µg/mL)
CCCCCCCCn1cc(CN2CC3COCC(C2)O3)c2ccc(OC)cc21	17 (≈ 6.81 µg/mL)	30 (≈ 12 µg/mL)
COc1ccc2c(CN3CCC4(CC3)OCCCO4)cn(CCCOc3ccc(C)cc3)c2c1	1.3 (≈ 0.604 µg/mL)	2.6 (≈ 1.21 µg/mL)
COc1ccc2c(CN3CCC4(CC3)OCCCO4)cn(CCCCOc3ccccc3)c2c1	11 (≈ 5.11 µg/mL)	25 (≈ 11.6 µg/mL)
CCCCCCCCn1ccc2cc(OCCCN3CCCC3)ccc21	31 (≈ 11.1 µg/mL)	48 (≈ 17.1 µg/mL)
CCCCCCCCn1cc(CN2CCC3(CCN(Cc4ccccc4)CC3)CC2)c2ccc(OC)cc21	2.3 (≈ 1.19 µg/mL)	4.4 (≈ 2.27 µg/mL)
COc1ccc2c(CN3CCC4(CC3)OCCO4)cn(CCCOc3ccccc3)c2c1	3 (≈ 1.31 µg/mL)	10 (≈ 4.37 µg/mL)
CCCCCCCCn1cc(CN2CCCC3(C2)CC3(F)F)c2ccc(OC)cc21 (centres undefined)	13 (≈ 5.44 µg/mL)	25 (≈ 10.5 µg/mL)
CCCCCCCCn1cc(CN2CCOC3(CCCOC3)C2)c2ccc(OC)cc21 (centres undefined)	1.8 (≈ 0.772 µg/mL)	6.3 (≈ 2.7 µg/mL)
CCCCCCCCn1cc(CN2CCC3(CC2)OCCO3)c2ccc(C#N)cc21	2.5 (≈ 1.02 µg/mL)	5 (≈ 2.05 µg/mL)
CCCCCCCCn1ccc2c(OCCCN3CCCC3)cccc21	18 (≈ 6.42 µg/mL)	36 (≈ 12.8 µg/mL)
CCCCCCCCn1cc(CN2CCOC3(CCCO3)C2)c2ccc(OC)cc21 (centres undefined)	15 (≈ 6.22 µg/mL)	46 (≈ 19.1 µg/mL)
COc1ccc(OCCCn2cc(CN3CCCCC3)c3ccc(OC)cc32)cc1	34 (≈ 13.9 µg/mL)	> 50
CCCCCCCCn1cc(CNCC2CC3CCC2C3)c2ccc(OC)cc21 (centres undefined)	1.1 (≈ 0.436 µg/mL)	1.9 (≈ 0.754 µg/mL)
CCCCCCCCn1cc(CN2CCCC3(CC2)OCCCS3)c2ccc(OC)cc21 (centres undefined)	0.5 (≈ 0.229 µg/mL)	1 (≈ 0.459 µg/mL)
COc1ccc(CCCn2cc(CN3CCC4(CC3)OCCO4)c3ccc(OC)cc32)cc1	7.4 (≈ 3.33 µg/mL)	17 (≈ 7.66 µg/mL)
CCCCCCCCn1cc(CN2CCC3(CC2)OCCO3)c2ccc(OCc3ccccc3)cc21	4 (≈ 1.96 µg/mL)	5.5 (≈ 2.7 µg/mL)
COc1ccc2c(CN3CCCCC3)cn(CCCOc3ccc(F)cc3)c2c1	20 (≈ 7.93 µg/mL)	43 (≈ 17 µg/mL)
COc1ccc2c(CN3CCC4(CC3)OCCO4)cn(CCCOc3ccc(C)c(C)c3)c2c1	4.6 (≈ 2.14 µg/mL)	11 (≈ 5.11 µg/mL)
CCCCCCCCn1cc(CN2CCCCC2)c2ccc(OC)cc21	7 (≈ 2.5 µg/mL)	13 (≈ 4.64 µg/mL)
CCCCCCCCn1ccc2cc(OCCCN3CCCCCC3)ccc21	1.9 (≈ 0.731 µg/mL)	8 (≈ 3.08 µg/mL)
CCCCCCCCn1ccc2ccc(OCCCN3CCCC3)cc21	20 (≈ 7.13 µg/mL)	42 (≈ 15 µg/mL)
